Assay results: patent US11229649B2, “Methods for treating cryptosporidiosis using triazolopyridazines” (University of Vermont and State Agricultural College, priority 2015, dated 2022)
Entries after “also recorded” stand apart in the source; their conditions may differ. Like-named read-outs stand apart in the source and are kept apart here.

Columns and labels:
[1] = Pharmacokinetics in male Sprague Dawley rats (IV and oral); type: in vivo, rat
Procedure: The pharmacokinetics of MMV665917 were studied in overnight-fasted male Sprague Dawley rats that had access to water ad libitum throughout the pre- and post-dose sampling period, and access to food was re-instated 4 h (hour) post-dose. MMV665917 was administered intravenously as a 10 min (minute) constant rate infusion via an indwelling jugular vein cannula (1 mL per rat, n=2 rats) and orally by gavage (10 mL/kg per rat, n=2 rats). Samples of arterial blood and total urine were collected up to 24 h post-dose. Arterial blood was collected directly into borosilicate vials (at 4° C.) containing heparin, Complete® (a protease inhibitor cocktail), potassium fluoride, and EDTA to minimise potential for ex vivo degradation of test compound in blood/plasma samples. Once collected, blood samples were centrifuged, supernatant plasma was removed and stored frozen (−20° C.) until analysis by LC-MS. IV Formulation. MMV665917 was dissolved in propylene glycol and ethanol before Milli-Q water was added producing a clear solution. The formulation was filtered through a 0.22 μm syringe filter prior to dosing, and the measured concentration of compound the filtered solution was 0.24 mg/mL. Oral Formulation. MMV665917 was wet milled in HPMC-SV in an agate mortar and sonicated for 10 minutes producing a uniform suspension. The bulk formulation was mixed by inverting the tubes prior to drawing each dosing volume and the average measured concentration of compound in aliquots (n=3) of formulation was 0.32 mg/mL (range 0.28-0.37 mg/mL).

C. parvum Iowa strain = experiment: Static or cidal assay: C. parvum persistence in HCT-8 cells at multiples of the EC90; type: cell-based, Cryptosporidium parvum; settings: compound added 24 hours after infection of HCT-8 cells (FIG. 7)
Procedure: HCT-8 cell monolayers are infected and parasites are allowed to replicate for 24 hours before addition of experimental drug compounds. Parasite numbers are then measured at different time points following compound addition by epifluorescence microscopy, using the same method as used in FIG. 1.
To assess if MMV665917 is cidal or static for C. parvum and determine the concentration of compound required to maximize the rate of parasite elimination, C. parvum persistence in HCT-8 colonic carcinoma cells was assayed in the presence of increasing multiples of the in vitro EC90. Briefly, the assay infects HCT-8 intestinal epithelial cells with the C. parvum Iowa strain as in Example 1. Parasites are then allowed to develop for 24 hours prior to the addition of the indicated concentration of experimental compounds (time 0 in the graphs above). At the indicated times following compound addition, samples are then fixed, the host cells and parasites are fluorescently stained, and parasites are enumerated by automated epifluorescence microscopy and image process as described in Example 1.

[2] = In vitro plasma/blood stability and whole blood-to-plasma ratio; type: in vitro ADME, rat; settings: 37° C.
Procedure: In Vitro Determination of Plasma/Blood Stability and Whole Blood-to-Plasma Ratio. MMV665917 was spiked into fresh heparinized whole blood (collected from male Sprague Dawley rats) or plasma of a corresponding volume (which acted as a matrix control) to an initial nominal concentration of 500 ng/mL. As a whole blood assay for the compound was not available, the concentration of MMV665917 in the spiked plasma (i.e. matrix control) was used as a surrogate measurement of the spiked whole blood concentration. Whole blood samples were incubated at 37° C. for up to 240 min after which plasma and erythrocytes were separated by centrifugation prior to determination of plasma concentrations by LC-MS. Whole blood-to-plasma partitioning ratios (B/P) were obtained by dividing the measured concentration in the plasma control sample by the concentration measured in plasma following centrifugation of whole blood.

C. parvum (Iowa strain) = experiment: NOD SCID gamma immunocompromised mouse model of cryptosporidiosis (fecal oocyst shedding by qPCR); type: in vivo, Cryptosporidium parvum
Description: A NOD SCID gamma mouse model was used for in vivo testing of confirmed screening hits. NOD SCID gamma mice (Jackson Laboratories) develop Cryptosporidium parvum infection following oral gavage that is characterized by persistent infection of the small intestinal and cecal epithelium. The mice remain asymptomatic and gain weight normally. Infection is established by oral gavage of 1×10^4 C. parvum (Iowa strain) oocysts on day −6. Fecal parasite shedding is quantified by quantitative PCR of genomic DNA, using a standard curve generated by spiking oocysts into fecal samples from uninfected mice. Fecal oocyst shedding reliably becomes detectable at day 1 (1 week after infection). Experimental compounds are administered by oral gavage of 30 mg/kg in DMSO:1% HPMC (5:95) twice daily for 4 days. Parasite shedding is compared to that for infected mice treated with drug carrier alone (i.e. DMSO:1% HPMC (5:95)).
Results for treatment of C. parvum infected NOD SCID gamma mice with DMSO or selected MMV Malaria Box screening hits with confirmed in vitro activity given by oral gavage of 30 mg/kg twice daily on days 1-4 can be seen in FIG. 2. Cryptosporidium parvum infection was established on day −6. Parasite shedding is detectable in all animals on day 1. […] Other compounds and DMSO had no effect. Data shown are the mean and SE for parasites detected/mg of feces (n=4 animals per treatment group).
A repeat of the experiment presented in FIG. 2 showing efficacy of MMV665917 in the NOD SCID gamma mouse model is presented in FIG. 5. […] For this experiment, NOD SCID gamma mice were infected on day −6 by oral gavage of C. parvum oocysts, shedding was detected at day 0 prior to compound dosing, compounds or vehicle were dosed on days 0-6 as indicated, and mice were maintained for one week following cessation of treatment. Data shown are the mean and SE for the number of oocysts/mg stool detected by real time PCR of the feces on the indicated day (four mice per experimental group).

[3] = Mouse plasma concentration, single oral dose and simulated BID dosing; type: in vivo
Procedure: Compounds were dosed as indicated either orally by oral gavage or intravenously, and serum samples were collected at the indicated time points. The MMV665917 plasma concentration was measured by LC-MS/MS.
(§1) Mouse serum concentrations measured from a single 55 mg/kg oral dose of MMV665917 (see above figure) were used to simulate the mouse serum concentrations following BID dosing of either 30 mg/kg or 60 mg/kg. The measured calf plasma concentration following a single 22 mg/kg oral dose is also shown. Note that a minimum concentration of EC90 was required for parasite elimination in vitro, and the rate of parasite elimination in vitro was maximized at 3× the EC90 concentration.
as §1, with “The actual and simulated mouse and calf plasma concentrations for MMV665917, correlated to the EC90 and 3×EC90 concentrations are shown in FIG. 9. Mouse” for “Mouse”, “(FIG. 9)” for “(see above figure)”

Cryptosporidium = settings: cited from earlier work
C. parvum = C. parvum growth inhibition in HCT-8 cells, in vitro dose response (immunofluorescence); type: cell-based; settings: Cryptosporidium parvum; C. parvum in HCT-8 cells; plate control of the screen; read-out: 90% inhibitory concentration (IC90)
Procedure: Materials and Methods: Cell culture and Cryptosporidium infections: The high throughput screen for C. parvum growth inhibitors was carried out using human ileocecal adenocarcinoma (HCT-8) cells (ATCC) maintained in RPMI 1640 medium with HEPES, sodium pyruvate (1 mM) and L-glutamate with 10% horse serum (ATCC) supplemented with 120 U/mL penicillin and 120 μg/mL streptomycin. HCT-8 cells were grown to confluence in 384-well, tissue culture-treated, black-walled, clear-bottom microwell plates (BD Falcon). […]
Infected monolayers were washed three times with PBS containing 111 mM D-galactose using an EL406 automated plate washer (Biotek), fixed with 4% paraformaldehyde, permeabilized with 0.25% Triton X-100 in PBS, and then blocked with 4% bovine serum albumin (BSA). Vegetative forms of C. parvum were detected by the addition of biotinylated Vicia villosa lectin (VVL; Vector Laboratories) and streptavidin-conjugated Alexa Fluor 568 (Invitrogen) diluted in PBS with 1% BSA and 0.1% Tween 20. […]
ImageJ outputs were imported into Microsoft Excel for data organization and analysis. Percent inhibition was calculated (equation 1) for each well in order to normalize the data and to facilitate the combination of data from individual biological replicates. […]

[4] = 30 mg/kg twice daily oral gavage, days 1-4 (FIG. 2)

O=C(Nc1ccc(Cl)cc1)N1CCN(c2ccc3nncn3n2)CC1 [MMV665917]
half-life ([1]; male, Sprague Dawley, rat, plasma, 0.24 mg per rat, rats, IV administration, read-out: apparent terminal half-life): 3 to 4 h
bioavailability ([1]; male, Sprague Dawley, rat, plasma, po, 3.2 mg/kg, rats, oral administration, read-out: apparent oral bioavailability): 24 to 43%
haemolysis in plasma ([1]; rat, in vivo, iv): Evidence of haemolysis was observed
apparent volume of distribution ([1]; rats, IV administration): moderate
in vivo clearance ([1]; rats, IV administration): low
time plasma concentrations remained above the analytical LLQ ([1]; rats, IV administration): 16 h
fraction of the dose recovered in urine as intact compound ([1]; rats, IV, 24 h sampling period): approximately 25%
adverse reactions or compound related side effects ([1]; rats, following IV or oral administration): No adverse reactions or compound related side effects were observed
absorption ([1]; rats, oral administration): slowly absorbed
apparent terminal half-life ([1]; rats, oral administration): consistent with that observed after IV dosing
time of maximum plasma concentrations ([1]; rats, oral administration): 5 h post-dose
static or cidal for C. parvum (C. parvum Iowa strain): cidal
stability in rat plasma and whole blood ([2]; up to 240 min, 500 ng/mL): stable
blood plasma ratio at 500 ng/mL ([2]; male, Sprague Dawley, fresh heparinized whole blood, rat blood, read-out: apparent in vitro whole blood to plasma partitioning ratio (B/P)): 1.1
efficacy across the two experiments (C. parvum (Iowa strain); 30 mg/kg BID (effective in FIG. 2, ineffective in FIG. 5)): variable efficacy; also recorded: variably efficacious
parasite shedding (oocysts/mg feces) (C. parvum (Iowa strain); [4]): significantly reduced parasite shedding
persistence of reduced parasite shedding following cessation of treatment (C. parvum (Iowa strain); [4]): > 3 days
efficacy on C. parvum shedding, repeat experiment (C. parvum (Iowa strain); 30 mg/kg twice daily oral gavage, seven days (FIG. 5)): inactive; also recorded: not effective
efficacy on C. parvum shedding, repeat experiment (C. parvum (Iowa strain); 60 mg/kg twice daily oral gavage, seven days (FIG. 5)): eliminated detection of C. parvum shedding in the feces; also recorded: cured; also recorded: curative
relapse over the week following cessation of treatment (C. parvum (Iowa strain); 60 mg/kg twice daily, seven days (FIG. 5)): no relapse was observed
intestinal absorption ([3]; mouse (FIG. 4)): slow
serum half-life ([3]; mouse (FIG. 4)): prolonged
systemic exposure ([3]; mouse (FIG. 4)): moderate
plasma/serum concentration relative to the EC90 / 3×EC90 ([3]; mouse, 30 mg/kg BID, simulated from single 55 mg/kg oral dose): exceeds the EC90 for just over ½ the dosing interval; also recorded: not attained
time to peak serum concentration ([3]; mouse, single dose (FIG. 4)): 6 h

CC(=O)Oc1ccccc1C(=O)Nc1ncc([N+](=O)[O-])s1 [nitazoxanide]
efficacy in cryptosporidiosis (Cryptosporidium; AIDS patients / immunocompromised people): lacks activity
efficacy in cryptosporidiosis (Cryptosporidium; AIDS patients / immunocompromised people, listed as Nitazoxanide): no more effective than placebo
efficacy in cryptosporidiosis (Cryptosporidium; children): partial efficacy
static or cidal for C. parvum (C. parvum Iowa strain): static
activity in the NOD SCID gamma mouse model (C. parvum (Iowa strain); dose not stated): lacks activity
IC90 (C. parvum): 6.6 µM

NC[C@@H]1O[C@H](O[C@H]2[C@@H](O)[C@H](O[C@@H]3[C@@H](O)[C@H](N)C[C@H](N)[C@H]3O[C@H]3O[C@H](CO)[C@@H](O)[C@H](O)[C@H]3N)O[C@@H]2CO)[C@H](N)[C@@H](O)[C@@H]1O [paromomycin, reference compound]
relapse after treatment cessation (C. parvum (Iowa strain); 1000 mg/kg twice daily, positive control (FIG. 5)): relapsed quickly after treatment cessation
